Common to all, as to assay: Kinase selectivity, DiscoverX scanMAX Kinase assay panel (% control)
Holding throughout (format): binding

Test [1] concerns the target T1, kinases of the scanMAX Kinase assay panel (Homo sapiens, UniProt Q9H2X6).
T1 construct: purchased DiscoverX Co. (contract measurement) scanMAX Kinase assay panel
The following applies: HIPK2; 1 uM. In short, it runs like this: (§1)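 Percent of control computed as (compound − positive control)/(negative control − positive control) × 100, DMSO defining 100% and positive control 0%. Each panel kinase exposed to 1 uM compound; values under 35% taken to mean the compound acts on that kinase.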

Test [2] concerns the target T2, kinases of the scanMAX Kinase assay panel (Homo sapiens, UniProt Q96BR1).
T2 construct: purchased DiscoverX Co. (contract measurement) scanMAX Kinase assay panel
T2 sequence (Q96BR1 1-496): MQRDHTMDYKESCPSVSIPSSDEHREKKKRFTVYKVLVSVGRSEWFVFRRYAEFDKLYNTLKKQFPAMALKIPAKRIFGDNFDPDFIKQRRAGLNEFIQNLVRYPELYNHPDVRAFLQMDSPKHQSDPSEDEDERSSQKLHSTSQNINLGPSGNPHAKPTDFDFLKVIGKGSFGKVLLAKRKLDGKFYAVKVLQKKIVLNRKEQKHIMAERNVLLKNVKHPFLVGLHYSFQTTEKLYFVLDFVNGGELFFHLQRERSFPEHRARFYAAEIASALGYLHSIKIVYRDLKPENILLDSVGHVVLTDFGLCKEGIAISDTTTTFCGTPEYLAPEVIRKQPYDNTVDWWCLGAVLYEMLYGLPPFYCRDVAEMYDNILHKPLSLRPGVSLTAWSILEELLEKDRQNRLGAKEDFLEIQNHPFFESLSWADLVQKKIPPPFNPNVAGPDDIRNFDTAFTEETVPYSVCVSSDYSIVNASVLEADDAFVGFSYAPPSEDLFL
The following applies: kinase SGK3; 1 uM in DMSO. In short, it runs like this: as §1

Test [3] has as its target T3, kinases of the scanMAX Kinase assay panel (Homo sapiens, UniProt P36888, D835V).
T3 construct: purchased DiscoverX Co. (contract measurement) scanMAX Kinase assay panel
T3 sequence (P36888 27-993 D835V): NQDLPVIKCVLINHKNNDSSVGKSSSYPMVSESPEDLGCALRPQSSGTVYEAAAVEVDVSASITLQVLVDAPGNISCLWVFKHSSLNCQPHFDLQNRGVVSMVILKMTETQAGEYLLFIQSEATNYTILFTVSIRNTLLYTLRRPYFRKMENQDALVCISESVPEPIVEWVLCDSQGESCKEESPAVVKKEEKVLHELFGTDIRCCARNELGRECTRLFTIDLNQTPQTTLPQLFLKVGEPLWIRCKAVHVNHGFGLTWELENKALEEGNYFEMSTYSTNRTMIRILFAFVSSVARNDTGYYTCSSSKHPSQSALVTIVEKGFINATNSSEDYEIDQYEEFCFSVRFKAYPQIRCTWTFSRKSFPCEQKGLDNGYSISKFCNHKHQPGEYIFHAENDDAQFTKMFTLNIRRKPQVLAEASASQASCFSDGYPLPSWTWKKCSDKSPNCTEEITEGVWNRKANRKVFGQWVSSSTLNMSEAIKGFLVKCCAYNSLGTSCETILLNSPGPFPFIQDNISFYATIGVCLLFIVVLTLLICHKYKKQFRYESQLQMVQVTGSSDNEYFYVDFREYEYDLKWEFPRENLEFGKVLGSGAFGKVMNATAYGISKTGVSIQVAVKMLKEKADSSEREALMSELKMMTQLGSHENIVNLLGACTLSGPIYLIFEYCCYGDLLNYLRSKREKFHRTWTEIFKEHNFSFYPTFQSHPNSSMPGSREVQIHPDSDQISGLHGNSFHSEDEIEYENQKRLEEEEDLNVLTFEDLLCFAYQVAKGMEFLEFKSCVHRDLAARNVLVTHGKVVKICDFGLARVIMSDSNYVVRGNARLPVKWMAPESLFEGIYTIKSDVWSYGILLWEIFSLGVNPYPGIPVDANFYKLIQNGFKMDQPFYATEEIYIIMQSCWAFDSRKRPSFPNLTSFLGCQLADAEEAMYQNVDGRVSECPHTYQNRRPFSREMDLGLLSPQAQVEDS
The following applies: FLT3(D835V); 1 uM. In short, it runs like this:
as §1

The target of test [4] is T4, kinases of the scanMAX Kinase assay panel (Homo sapiens, UniProt P00519, Y253F).
T4 construct: purchased DiscoverX Co. (contract measurement) scanMAX Kinase assay panel
The following applies: ABL1(Y253F)-phosphorylated; 1 uM. In short, it runs like this:
as §1

T1 sequence (Q9H2X6 whole entry): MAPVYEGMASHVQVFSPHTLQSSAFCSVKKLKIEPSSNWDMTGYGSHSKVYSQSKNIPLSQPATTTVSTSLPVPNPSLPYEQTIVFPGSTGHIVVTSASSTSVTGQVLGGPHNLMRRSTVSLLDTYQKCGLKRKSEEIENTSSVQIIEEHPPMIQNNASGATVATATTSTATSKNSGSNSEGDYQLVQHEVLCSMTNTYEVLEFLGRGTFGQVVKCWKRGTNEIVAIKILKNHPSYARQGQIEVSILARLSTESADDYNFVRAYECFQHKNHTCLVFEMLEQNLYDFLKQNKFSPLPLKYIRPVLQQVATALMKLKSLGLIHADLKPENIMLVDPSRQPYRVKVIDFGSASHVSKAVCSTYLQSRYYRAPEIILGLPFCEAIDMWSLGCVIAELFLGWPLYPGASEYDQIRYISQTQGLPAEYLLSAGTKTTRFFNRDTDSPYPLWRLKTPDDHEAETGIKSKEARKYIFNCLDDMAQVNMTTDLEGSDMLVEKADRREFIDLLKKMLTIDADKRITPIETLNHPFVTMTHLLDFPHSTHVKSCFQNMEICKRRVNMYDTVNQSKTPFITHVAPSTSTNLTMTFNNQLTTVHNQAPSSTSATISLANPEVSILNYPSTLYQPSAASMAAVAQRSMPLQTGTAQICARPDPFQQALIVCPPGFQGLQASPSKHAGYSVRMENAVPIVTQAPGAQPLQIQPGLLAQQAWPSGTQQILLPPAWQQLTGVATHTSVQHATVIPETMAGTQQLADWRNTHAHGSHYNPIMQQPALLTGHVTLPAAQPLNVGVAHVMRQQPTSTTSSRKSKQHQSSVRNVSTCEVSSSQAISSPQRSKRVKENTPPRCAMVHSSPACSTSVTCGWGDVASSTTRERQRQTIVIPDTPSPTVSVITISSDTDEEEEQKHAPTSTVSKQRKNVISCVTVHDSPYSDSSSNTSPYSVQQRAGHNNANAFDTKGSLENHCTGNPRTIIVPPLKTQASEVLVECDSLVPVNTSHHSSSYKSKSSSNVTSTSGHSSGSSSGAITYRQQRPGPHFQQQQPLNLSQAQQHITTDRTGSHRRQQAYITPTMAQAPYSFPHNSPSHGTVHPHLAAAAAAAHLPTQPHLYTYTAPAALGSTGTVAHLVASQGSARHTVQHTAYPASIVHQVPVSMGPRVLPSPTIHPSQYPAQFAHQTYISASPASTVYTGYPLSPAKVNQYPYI

For `CC1(Nc2nc(Nc3cnn([C@H]4CCN(C5COC5)C[C@@H]4F)c3Cl)nc3[nH]cc(C#N)c23)CC1` [Example 52, 2-((5-chloro-1-((3S,4S)-3-fluoro-1-(oxetane-3-yl)piperidine-4-yl)-1H-pyrazole-4-yl)amino)((1-methylcyclopropyl)amino)-7H-pyrrolo[2,3-d]pyrimidine-5-carbonitrile], the remaining binding at 1 µM in test [1] was determined as 13%; in test [2] it was 70%; in test [3], 0%; in test [4], 1%.

As to `CCNc1nc(Nc2ccc(C(=O)N3CCC(N4CCOCC4)CC3)cc2OC)nc2[nH]cc(C(F)(F)F)c12` [Example 104, (4-((4-(ethylamino)-5-(trifluoromethyl)-7H-pyrrolo[2,3-d]pyrimidine-2-yl)amino)-3-methoxyphenyl)(4-morpholinopiperidine-1-yl)methanone], the remaining binding at 1 µM in test [1] is 14%; in test [2], 87%; in test [3] it was 0%; in test [4], 86%.

On to `CNc1nc(Nc2ccc(C(=O)N3CCOCC3)cc2OC)nc2[nH]cc(C#N)c12` [Example 1, 2-((2-methoxy-4-(morpholine-4-carbonyl)phenyl)amino)-4-(methylamino)-7H-pyrrolo[2,3-d]pyrimidine-5-carbonitrile], for which the remaining binding at 1 µM was 47% in test [1], 63% in test [2], 58% in test [3] and 97% in test [4].

Values taken from US11208412B2 (DAEGU-GYEONGBUK MEDICAL INNOVATION FOUNDATION, priority 2017, dated 2021).
